Series [1] relates to P. yoelii liver-stage parasites in murine primary hepatocytes. The series is described as follows: In vitro liver-stage development, P. yoelii in murine primary hepatocytes. In kind it is cell-based, Plasmodium yoelii. From the text: P. yoelii 230-GFP-Luc sporozoites are mutant parasites expressing a green fluorescent protein (GFP)-luciferase cassette generated by the gene out marker out (GOMO) strategy ([39]).
Primary human hepatocytes were isolated from liver segments obtained from adult patients undergoing partial hepatectomy (Service de Chirurgie Digestive, Hépato-Bilio Pancréatique, Hôpital Pitié Salpêtrière, Paris, France). Primary simian hepatocytes were isolated from liver segments collected from healthy Macaca fascicularis monkeys from CEA, Fontenay aux Roses, France. All hepatocytes were obtained using collagenase perfusion as previously described ([40]). […] Primary murine hepatocytes were isolated from liver segments collected from BALB/c mice. Human and murine hepatocytes were used directly after their isolation. Cells were seeded in 96-well plates (Falcon; Becton Dickinson Labware Europe, France) coated with collagen I (BD Bioscience, USA) at a density of 80,000 cells per well. […] For human hepatocytes, the complete medium was supplemented with 2% dimethyl sulfoxide (DMSO; Sigma-Aldrich, USA) before infection to preserve their differentiation.
On the day of infection, 3 · 10^4 sporozoites of P. falciparum, P. yoelii, and P. cynomolgi were added to their respective host cell cultures (human, murine, and simian). The infected culture plates were centrifuged for 10 min at 900 × g, allowing fast parasite sedimentation, and further incubated with serial dilutions of M1. Culture medium containing the appropriate drug concentration was refreshed daily, and cells were fixed at 48 h postinfection (p.i.) for infections with P. yoelii, 6 days p.i. for P. falciparum, or 8 days p.i. for P. cynomolgi. For the in vitro sporozoite invasion experiments, P. falciparum sporozoites were preincubated with 1, 10, and 100 μM M1 for 1 h at room temperature before hepatocyte infections. Three hours later, after sporozoite penetration into hepatocytes, cultures were washed and then further incubated with or without the presence of the drug during 6 days. DMSO was used as a negative control.
The number, size, and shape of the parasites were determined using a CellInsight high-content screening platform equipped with Studio HCS software (ThermoFisher Scientific). […] Host cell and parasite nuclei were labeled with DAPI (4′,6-diamidino-2-phenylindole). […] The custom script used for counting and measuring parasites first required identification of the objects based on a fluorescence intensity threshold. The object identity was then further validated based on size and morphological (shape) criteria. The presence of DAPI-associated fluorescence in the selected objects allowed their final selection and the rejection of false positives. […] The parasitic size reduction was calculated on the average object area using the total surface area of each selected object (μm^2).

Series [2] deals with P. yoelii (GFP-luc strain). The experiment in a line: In vivo liver-stage assay in mice infected with P. yoelii sporozoites. More on the design: species or system BALB/c mice. On the procedure:
Five mice per treatment group were used. Experimental groups were treated with 50 and 100 mg/kg of M1 intraperitoneally (i.p.). Untreated infected mice and noninfected mice (infection controls), as well as primaquine-treated (50 mg/kg) mice (control drug), were also included. The drugs were administered on days −1, 0, and +1, and mice were challenged on day zero by retroorbital injection of P. yoelii (GFP-luc strain) sporozoites (10,000 per mouse). In vivo bioluminescence imaging was performed 44 h postinfection on day 2, to assess liver-stage development. When parasites were detected in the liver, treatment was continued until day 5 and in vivo imaging was performed on days 3 and 6, to evaluate a prepatent period for the blood-stage parasites in mice after the sporozoite inoculation. In vivo imaging and blood smears were performed to monitor blood-stage development using methods described previously ([45]). This experiment was performed twice.
IVIS Spectrum (Caliper Life Science, Hanover, MD) was used to capture bioluminescence signals. Prior to analysis, the mice were injected i.p. with D-luciferin (100 mg/kg), anesthetized with isoflurane, and imaged 10 min postinjection. Images were analyzed using the Living Image 3.0 software (Caliper Life Sciences, Hanover, MD).
In order to study the in vivo efficacy of M1 without any hepatic CYP metabolism, we conducted an experiment using 1-aminobenzotriazole (ABT), a nonselective inhibitor of cytochrome P450 enzymes ([34], [35]). ABT was administered to mice i.p. 1 h before each treatment with 50 mg/kg gamhepathiopine for 3 days starting from the day before sporozoite inoculation.

Series [3] has as its system P. yoelii in HepG2-CD81 cells. The experiment in a line: Hepatic stage of P. yoelii in HepG2-CD81 cells. In kind it is cell-based. Conditions: Plasmodium yoelii; hepatic schizonts. On the procedure:
Hepatocytes were seeded into collagen-coated black 96-well plates and maintained at 37°C in 5% CO2 in complete medium. […] The infected culture plates were centrifuged for 10 min at 900 × g, allowing fast parasite sedimentation, and further incubated with serial dilutions of M1. […] DMSO was used as a negative control. The number, size, and shape of the parasites were determined using a CellInsight high-content screening platform equipped with Studio HCS software (ThermoFisher Scientific). The parasite immunostaining was done using an […]70 antibody raised in mice and a secondary anti-mouse antibody coupled to Alexa Fluor 488 ([43]). […] Thirty-seven images, representing more than 95% of the total bottom surface area of a culture well in 96-well plates, were captured for analysis. The custom script used for counting and measuring parasites first required identification of the objects based on a fluorescence intensity threshold. The object identity was then further validated based on size and morphological (shape) criteria. The presence of DAPI-associated fluorescence in the selected objects allowed their final selection and the rejection of false positives. […] The parasitic size reduction was calculated on the average object area using the total surface area of each selected object (μm^2).

Series [4] can be described thus: Cytotoxicity on HepG2 cell line (MTT). In kind it is cell-based. The settings on record: human, HepG2 cells. Here is the method:
The evaluation of the cytotoxicity of the tested molecules on the HepG2 cell line was performed according to the method of Mosman ([42]) with slight modifications. […] Triplicate assays were performed for each sample. Each well was then examined under a microscope to detect possible precipitate formation before the medium was aspirated from the wells. An amount of 100 μl of MTT solution (0.5 mg/ml in medium without FBS) was then added to each well. […] After this time, the MTT solution was removed and DMSO (100 μl) was added to dissolve the resulting blue formazan crystals. Plates were shaken vigorously (700 rpm) for 10 min. The absorbance was measured at 570 nm with 630 nm as the reference wavelength using a Tecan Infinite F-200 microplate reader. DMSO was used as a blank and doxorubicin as a positive control. Cell viability was calculated as the percentage compared to the control (cells incubated without compound). […] CC50 values represent the mean values calculated from three independent experiments.

Series [5] deals with P. yoelii in HepG2-CD81 cells. More on the design: method as in PMID 25791675. The settings on record: liver stage of Plasmodium yoelii infecting HepG2-CD81 cells; cited from earlier work.
For another series, the system named is HepG2 or CHO cell lines. Set-up: method as in PMID 25791675. The settings on record: cited from earlier work.

Like-named read-outs stand apart in the source and are kept apart here.

Usually EC50 stands for the midpoint of the concentration-response curve. A word on the CC50: it is the concentration giving 50% cytotoxicity. Turning to `Cc1ccc(-c2cc3nc(NC(C)(C)C)[nH]c(=O)c3s2)cc1` [Metabolite M1, 2-(tert-Butylamino)-6-(p-tolyl)thieno[3,2-d]pyrimidin-4(3H)-one], the half-maximal effective concentration (EC50) in series [1] (Plasmodium yoelii, Hepatocyte, P. yoelii in murine primary hepatocytes (MH), mean ± SEM of triplicate experiments, read-out: EC50 against liver-stage parasites) was 450 ± 100 nM; in series [3] it was 0.067 µM; in series [5], 35 nM. In series [1] (hepatocyte CC50/EC50, P. yoelii (MH)), the “SI (selectivity index)” value is reported as greater than 133. The “Size reduction at 10 μM (%)” value in series [1] (parasite (schizont) size, 10 μM, P. yoelii (MH)) was 100%. The “development of liver-stage parasites in vivo at day 2” value in series [2] (50 mg/kg i.p., 44 h postinfection, bioluminescence) is on record as “did not prevent the development of liver-stage parasites”. Further, the “blood-stage parasitemia after sporozoite infection” value in series [2] (50 mg/kg, blood smears days 3 and 6) is reported as “reduced the burden of blood-stage parasites”. The “in vivo activity against the hepatic stages with ABT cotreatment” value in series [2] (M1 50 mg/kg with 1-aminobenzotriazole 50 mg/kg i.p.) is on record as “improved”. The same compound showed a CC50 at 72 h in series [4] of 24 µM. The CC50 in the series on HepG2 or CHO cell lines is no less than 25000 nM.

Source of the values: article PMC8557901 (Microbiology Spectrum, 2021).
